According to patent US7198958B2, “Method for increasing hydrophilicity of fluorescent label compounds” (Arctic Diagnostics Oy, priority 2001, dated 2007):

Columns and labels:
Format in all cases: physicochemical
mouse IgG anti-AFP [1] = assay: Labelling of mouse IgG anti-AFP with dipyrrometheneboron difluoride dyes; conditions: 10 fold excess of label, phosphate buffered saline pH 7.4, room temperature 2 h
Procedure: To the solution of 1.5 mg (9.3 nmol) of mouse IgG anti-AFP in 400 μl phosphate buffered saline (10/150 mM, pH 7.4) a 10 fold excess (93 nmol) of compound 2, 4, 5 or 6 in anhydrous N,N-dimethylformamide was added. 40 μl of NaHCO3 (1 M, aq) was added and the mixture was incubated at room temperature for 2 h. The products were purified with NAP-5 gel filtration column (Amersham Pharmacia Biotech, Uppsala, Sweden) using phosphate buffered saline (50/150, 10 mM NaN3, pH 7.4) as eluent. The fast moving coloured fractions were collected. […] The labelling degrees of these protein conjugates (compound 4 and 6) were determined spectrophotometrically. Labelling degrees of 2.1 (compound 4) and 2.3 (compound 6) fluorophores per protein were obtained.

mouse IgG anti-AFP [2] = assay: Labelling of mouse IgG anti-AFP with rhodamine 6G labels; absorption spectrum of the conjugate; conditions: for normal absorption band of labelled mouse IgG anti-AFP: absorption spectrum of IgG conjugate in phosphate buffered saline pH 7.4; for additional absorption band of labelled mouse IgG anti-AFP (non-fluorescent aggregates, hydrophobic interactions): absorption spectrum of IgG conjugate, equi-intense band, absent in excitation spectrum
Procedure: To the solution of 0.28 mg (1.75 nmol) of mouse IgG anti-AFP in 200 μl phosphate buffered saline (10/150 mM, pH 7.4) a 10 fold excess (17.5 nmol) of 5-carboxyrhodamine 6G succinimidyl ester (compound 15, Molecular Probes, Eugene, Oreg.) in anhydrous N,N-dimethylformamide or a 20 fold excess of Glu-Tau-succinimide derivative of 5-carboxyrhodamine 6G in acetonitrile water (reaction mixture of example 14, compound 17) was added. 40 μl of NaHCO3 (1 M, aq) was added and the mixtures were incubated at room temperature for 2 h. The products were purified with NAP-5 gel filtration column (Amersham Pharmacia Biotech, Uppsala, Sweden) using phosphate buffered saline (50/150, 10 mM NaN3, pH 7.4) as eluent. The fast moving coloured fractions were collected.
This additional absorption originates from hydrophobic interactions between the fluorophores and protein or between the two fluorophores. […] These non-fluorescent aggregates are typical for hydrophobic xanthene-type dyes (rhodamines and fluoresceins).

[3] = system: 5′-aminomodified oligonucleotide; assay: Labelling of oligonucleotide; fluorescence yield of labelled oligonucleotide; conditions: labelled oligonucleotides diluted to equimolar concentrations
Procedure: To the solution of 5′-aminomodified oligonucleotide (17 bases, 28 μg, 5 nmol) in carbonate buffer (200 μl, 100 mM, pH 8.5) a 40 fold excess of labelling reagent (compound 2 or 4) in anhydrous DMF (50 μl) was added. Reaction mixture was incubated at 22° C. for 20 h. The labelled oligonucleotides were purifed by using reverse phase HPLC (RP-18 column) and gradient elution technique. Solvents were A: 2% acetonitrile in triethylammonium acetate buffer (50 mM, pH 7) and B: 70% acetonitrile in triethylammonium acetate buffer (50 mM, pH 7). The gradient started from 5% of solvent B and the amount of solvent B linearly raised to 40% in 25 minutes. Both dye-oligonucleotide conjugates (labelled with compound 2 or with compound 4) eluted between 18 to 22 minutes while the unlabelled oligonucleotide eluted at a timepoint of 10 minutes. The unbound labelling reagent was removed from the column by increasing the amount of solvent B to 100%.
The concentrations of the labelled oligonucleotides were determined spectrophotometrically. […] The labelled oligonucleotides were diluted to equimolar concentrations and the fluorescence yields were determined. […] The higher fluorescence yield of the oligonucleotide labelled with compound 4 can be explained by increased hydrophilicity of the label compound and increased distance between the label and the oligonucleotide.

Question: For “4,4-difluoro-5-(2-thienyl)-1,3-dimethyl-4-bora-3a,4a-diaza-s-indacene-2-propionic acid succinimidyl ester [compound 2, reference compound]”, which “precipitation of the labelled proteins on labelling” value (from here on “precipitation”) (mouse IgG anti-AFP [1]) is on record?
Answer: The value was “almost complete precipitation of the labelled proteins”.

Question: For “4,4-difluoro-(2-pyrrolyl)-1,3-dimethyl-4-bora-3a,4a-diaza-s-indacene-2-propionic acid succinimidyl ester [compound 5, reference compound]”, which “precipitation” value (mouse IgG anti-AFP [1]) is on record?
Answer: Its value is “almost complete precipitation of the labelled proteins”.

Question: CCN=c1cc2oc3cc(NCC)c(C)cc3c(-c3ccc(C(=O)ON4C(=O)CCC4=O)cc3C(=O)O)c-2cc1C [compound 15, 5-carboxyrhodamine 6G succinimidyl ester, reference compound] was tested. Which “normal absorption band of labelled mouse IgG anti-AFP” value (mouse IgG anti-AFP [2]) did it give?
Answer: The value was 530 nm.

Question: And the “additional absorption band of labelled mouse IgG anti-AFP (non-fluorescent aggregates, hydrophobic interactions)” value (mouse IgG anti-AFP [2])?
Answer: Its value is 504 nm.

Question: Which “precipitation” value (mouse IgG anti-AFP [1]) does the source give for “Glu-Tau-succinimide derivative of 4,4-difluoro-5-(2-pyrrolyl)-1,3-dimethyl-4-bora-3a,4a-diaza-s-indacene-2-propionic acid [compound 6]” here?
Answer: Its value is “proceeded without any problems”.

Question: How did the “precipitation” value (mouse IgG anti-AFP [1]) turn out when “Glu-Tau-succinimide derivative of 4,4-difluoro-5-(2-thienyl)-1,3-dimethyl-4-bora-3a,4a-diaza-s-indacene-2-propionic acid [compound 4]” was run?
Answer: Its value is “proceeded without any problems”.

Question: What about the “fluorescence yield of labelled oligonucleotide compared with oligonucleotide labelled with compound 2” value [3] of the same compound?
Answer: Its value is “one order of magnitude higher”.

Question: What does the source list for “Glu-Tau-succinimide derivative of 5-carboxyrhodamine 6G [compound 17]”?
Answer: normal absorption band of labelled mouse IgG anti-AFP (mouse IgG anti-AFP [2]): 530 nm; additional absorption band of labelled mouse IgG anti-AFP (non-fluorescent aggregates, hydrophobic interactions) (mouse IgG anti-AFP [2]): absence of additional absorption band
